We go through 2 molecules from article PMC9457941, “Synthesis and Kinase Inhibitory Potencies of Pyrazolo[3,4-g]isoquinolines” (Molecules, 2022).

T6 sequence (P49674 whole entry): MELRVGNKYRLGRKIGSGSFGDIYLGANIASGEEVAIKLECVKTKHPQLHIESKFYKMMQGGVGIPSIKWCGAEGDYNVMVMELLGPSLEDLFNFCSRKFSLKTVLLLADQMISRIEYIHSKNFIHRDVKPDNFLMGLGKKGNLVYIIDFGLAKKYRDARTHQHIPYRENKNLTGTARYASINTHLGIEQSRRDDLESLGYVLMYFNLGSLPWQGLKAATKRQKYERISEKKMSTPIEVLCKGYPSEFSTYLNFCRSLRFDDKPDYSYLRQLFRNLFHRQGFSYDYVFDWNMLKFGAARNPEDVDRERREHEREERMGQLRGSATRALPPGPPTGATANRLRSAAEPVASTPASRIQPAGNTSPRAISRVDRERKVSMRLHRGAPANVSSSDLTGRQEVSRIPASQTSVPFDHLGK
T4 sequence (O60563 whole entry): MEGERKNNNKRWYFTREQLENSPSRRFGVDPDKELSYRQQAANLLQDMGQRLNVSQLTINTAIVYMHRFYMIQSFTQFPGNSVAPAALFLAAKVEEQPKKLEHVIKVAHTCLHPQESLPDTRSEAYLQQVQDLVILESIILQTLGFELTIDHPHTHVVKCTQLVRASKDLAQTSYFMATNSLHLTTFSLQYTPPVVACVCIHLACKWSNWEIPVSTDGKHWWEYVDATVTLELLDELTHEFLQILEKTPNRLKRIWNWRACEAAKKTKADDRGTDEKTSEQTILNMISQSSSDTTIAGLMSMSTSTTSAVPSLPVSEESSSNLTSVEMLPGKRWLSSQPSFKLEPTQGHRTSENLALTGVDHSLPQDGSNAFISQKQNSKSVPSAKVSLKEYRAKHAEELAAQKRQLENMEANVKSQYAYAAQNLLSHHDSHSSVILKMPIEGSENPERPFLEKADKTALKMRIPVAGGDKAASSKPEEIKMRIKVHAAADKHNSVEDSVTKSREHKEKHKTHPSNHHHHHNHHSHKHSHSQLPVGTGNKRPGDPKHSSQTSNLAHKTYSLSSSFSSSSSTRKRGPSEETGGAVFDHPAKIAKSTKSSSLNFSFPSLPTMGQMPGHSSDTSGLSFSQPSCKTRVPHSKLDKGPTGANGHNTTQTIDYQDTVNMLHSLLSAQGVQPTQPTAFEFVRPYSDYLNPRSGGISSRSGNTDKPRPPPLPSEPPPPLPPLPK
T4 sequence (P50750 whole entry): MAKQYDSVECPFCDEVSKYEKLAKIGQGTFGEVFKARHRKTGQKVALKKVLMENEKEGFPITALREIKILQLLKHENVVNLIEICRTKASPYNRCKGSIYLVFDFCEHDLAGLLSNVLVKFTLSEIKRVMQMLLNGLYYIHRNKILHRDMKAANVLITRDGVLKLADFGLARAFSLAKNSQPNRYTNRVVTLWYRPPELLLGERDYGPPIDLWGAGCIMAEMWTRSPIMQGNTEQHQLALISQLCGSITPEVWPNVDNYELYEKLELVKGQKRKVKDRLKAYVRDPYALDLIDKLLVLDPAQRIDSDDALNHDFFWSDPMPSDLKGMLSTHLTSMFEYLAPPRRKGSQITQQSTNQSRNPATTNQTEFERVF
T8 sequence (P11309 whole entry): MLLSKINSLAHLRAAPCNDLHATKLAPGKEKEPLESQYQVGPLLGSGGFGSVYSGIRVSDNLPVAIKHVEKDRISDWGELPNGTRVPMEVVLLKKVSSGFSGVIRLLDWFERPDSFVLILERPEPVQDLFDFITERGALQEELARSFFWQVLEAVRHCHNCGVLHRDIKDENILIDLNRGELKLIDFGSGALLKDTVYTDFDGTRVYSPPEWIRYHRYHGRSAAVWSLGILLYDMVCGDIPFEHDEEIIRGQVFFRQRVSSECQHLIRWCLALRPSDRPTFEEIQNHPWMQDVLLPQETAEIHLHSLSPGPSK

For the first experiment, the target named is T1, Haspin-kd (human, kinase domain, amino acids 470–798) (Homo sapiens, UniProt Q8TF76).
T1 construct: Haspin-kd (human, kinase domain, amino acids 470–798, recombinant, expressed in bacteria); host or cells: bacteria
T1 sequence (Q8TF76 470-798): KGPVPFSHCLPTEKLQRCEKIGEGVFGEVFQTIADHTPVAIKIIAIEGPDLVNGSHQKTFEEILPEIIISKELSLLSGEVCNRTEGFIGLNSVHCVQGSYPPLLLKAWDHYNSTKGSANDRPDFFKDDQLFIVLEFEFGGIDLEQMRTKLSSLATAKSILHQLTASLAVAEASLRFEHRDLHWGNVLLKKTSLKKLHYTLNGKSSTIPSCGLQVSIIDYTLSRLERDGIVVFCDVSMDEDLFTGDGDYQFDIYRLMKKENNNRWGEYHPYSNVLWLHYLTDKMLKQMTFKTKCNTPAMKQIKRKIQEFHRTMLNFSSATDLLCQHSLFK
The experiment can be described thus: ADP-Glo kinase inhibition assay, Haspin. To be noted: read-out: Haspin % residual activity at 1 μM. Type of experiment: biochemical. The method, then: (§1) Kinase enzymatic activities were assayed in 384 well plates using the ADP-GloTM assay kit (Promega, Madison, WI, USA) according to the manufacturer’s guidance. Briefly, the reactions were carried out in a final volume of 6 μL for 30 min at 30 °C in an appropriate kinase buffer (10 mM MgCl2, 1 mM EGTA, 1 mM DTT, 25 mM Tris-HCl pH 7.5, 50 μg/mL heparin), with either protein or peptide as substrate in the presence of 10 μM ATP (40 mM Tris pH 7.5, 20 mM MgCl2 and 0.1 mg/mL of BSA). Afterward, 6 μL of ADP-GloTM Kinase Reagent was added to stop the kinase reaction. After an incubation time of 50 min at room temperature (RT), 12 μL of Kinase Detection Reagent was added for 1 h at RT. The transmitted signal was measured using the Envision (Perkin Elmer, Waltham, MA, USA) microplate luminometer and expressed in relative light unit (RLU). In order to determine the half maximal inhibitory concentration (IC50), the assays were performed in duplicate in the absence or presence of increasing doses of the tested compounds. GraphPad Prism6 software (GraphPad Software, San Diego, CA, USA) was used to fit dose–response curves and to determine the IC50 values. Kinase activities are expressed in the percentage of maximal activity, i.e., measured in the absence of an inhibitor. Peptide substrates were obtained from Proteogenix (Schiltigheim, France).
A general note: In ADP-Glo the light output rises with the ADP produced.
Take `CCc1c2cnccc2c([N+](=O)[O-])c2c1cnn2CC` [Compound 3b, 1,4-Diethyl-9-nitro-1H-pyrazolo[3,4-g]isoquinoline]: the remaining activity at 1 µM is 63%.

Turning to `CCCCc1c2cnccc2c([N+](=O)[O-])c2c1cnn2CC` [Compound 3e, 4-Butyl-1-ethyl-9-nitro-1H-pyrazolo[3,4-g]isoquinoline], the remaining activity at 1 µM stood at 78%.

Still in this experiment, the particulars now being: read-out: Haspin % residual activity at 10 μM.
Turning to `CCc1c2cnccc2c([N+](=O)[O-])c2c1cnn2CC` [Compound 3b, 1,4-Diethyl-9-nitro-1H-pyrazolo[3,4-g]isoquinoline], the remaining activity at 10 µM amounted to 10%.

As to `CCCCc1c2cnccc2c([N+](=O)[O-])c2c1cnn2CC` [Compound 3e, 4-Butyl-1-ethyl-9-nitro-1H-pyrazolo[3,4-g]isoquinoline], the remaining activity at 10 µM stood at 19%.

Still in this experiment, the particulars now being: read-out: Haspin inhibition at 1 μM, 1 μM compound, % inhibition.
The term inhibition denotes how much of the control response was suppressed. On to `CCc1c2cnccc2c([N+](=O)[O-])c2c1cnn2CC` [Compound 3b, 1,4-Diethyl-9-nitro-1H-pyrazolo[3,4-g]isoquinoline], for which the inhibition at 1 µM was ≤ 50%.

In another experiment the target is T2, MmCLK1 (Mus musculus, UniProt P22518).
T2 construct: host or cells: bacteria
T2 sequence (P22518 whole entry): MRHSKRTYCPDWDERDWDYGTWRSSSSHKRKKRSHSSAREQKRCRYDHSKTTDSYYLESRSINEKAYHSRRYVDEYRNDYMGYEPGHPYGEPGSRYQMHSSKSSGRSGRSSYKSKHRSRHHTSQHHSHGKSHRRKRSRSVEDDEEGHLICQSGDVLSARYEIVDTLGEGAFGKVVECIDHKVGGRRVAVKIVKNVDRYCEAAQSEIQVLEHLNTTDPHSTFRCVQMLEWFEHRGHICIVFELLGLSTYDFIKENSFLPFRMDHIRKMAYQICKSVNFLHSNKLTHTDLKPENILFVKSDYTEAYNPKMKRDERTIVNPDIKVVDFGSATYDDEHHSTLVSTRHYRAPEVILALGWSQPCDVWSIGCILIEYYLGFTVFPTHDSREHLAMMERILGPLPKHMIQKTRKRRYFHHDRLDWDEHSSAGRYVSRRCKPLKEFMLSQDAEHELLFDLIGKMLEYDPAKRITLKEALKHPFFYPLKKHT
The experiment can be described thus: ADP-Glo kinase inhibition assay, CLK1. Format: biochemical. As to conditions: read-out: CLK1 % residual activity at 1 μM. The method, then: as §1
(§2) The following protein kinases were analyzed in this study: CDK5/p25 (human, recombinant, expressed in bacteria) was assayed with 0.8 μg/μL of histone H1 as substrate; CDK9/CyclinT (human, recombinant, expressed by baculovirus in Sf9 insect cells) were assayed with 0.27 μg/μL of the following peptide: […], as substrate; CK1ε (human, recombinant, expressed by baculovirus in Sf9 insect cells) was assayed with 0.022 μg/μL of the following peptide: […]pAYSITA (“Sp” stands for phosphorylated serine) as CK1-specific substrate; GSK3β (human, recombinant, expressed by baculovirus in Sf9 insect cells) were assayed with 0.010 μg/μL of GS-1 peptide, a GSK-3-selective substrate ([…]pEDEEE); Haspin-kd (human, kinase domain, amino acids 470–798, recombinant, expressed in bacteria) was assayed with 0.007 μg/μL of histone H3 (1–21) peptide ([…]) as substrate; Pim-1 (human proto-oncogene, recombinant, expressed in bacteria) was assayed with 0.8 μg/μL of histone H1 as substrate; MmCLK1 (from Mus musculus, recombinant, expressed in bacteria) was assayed with 0.027 μg/μL of the following peptide: […] as substrate; RnDYRK1A-kd (Rattus norvegicus, amino acids 1–499 including the kinase domain, recombinant, expressed in bacteria, DNA vector kindly provided by Dr. W. Becker, Aachen, Germany) was assayed with 0.033 μg/μL of the following peptide: […] as substrate.
Regarding `CCc1c2cnccc2c([N+](=O)[O-])c2c1cnn2CC` [Compound 3b, 1,4-Diethyl-9-nitro-1H-pyrazolo[3,4-g]isoquinoline], the remaining activity at 1 µM is 19%.

`CCCCc1c2cnccc2c([N+](=O)[O-])c2c1cnn2CC` [Compound 3e, 4-Butyl-1-ethyl-9-nitro-1H-pyrazolo[3,4-g]isoquinoline]: the remaining activity at 1 µM was found to be 58%.

The same experiment, now with this note: read-out: CLK1 % residual activity at 10 μM.
Turning to `CCc1c2cnccc2c([N+](=O)[O-])c2c1cnn2CC` [Compound 3b, 1,4-Diethyl-9-nitro-1H-pyrazolo[3,4-g]isoquinoline], the remaining activity at 10 µM amounted to 0%.

For the molecule `CCCCc1c2cnccc2c([N+](=O)[O-])c2c1cnn2CC` [Compound 3e, 4-Butyl-1-ethyl-9-nitro-1H-pyrazolo[3,4-g]isoquinoline], the remaining activity at 10 µM was 16%.

The target in another experiment is T3, RnDYRK1A-kd (Rattus norvegicus, UniProt Q63470).
T3 construct: RnDYRK1A-kd (Rattus norvegicus, amino acids 1–499 including the kinase domain, recombinant, expressed in bacteria); made in house; host or cells: bacteria
The experiment can be described thus: ADP-Glo kinase inhibition assay, DYRK1A. As to conditions: read-out: DYRK1A % residual activity at 1 μM. Type of experiment: biochemical. The method, then: as §1, §2
As for `CCc1c2cnccc2c([N+](=O)[O-])c2c1cnn2CC` [Compound 3b, 1,4-Diethyl-9-nitro-1H-pyrazolo[3,4-g]isoquinoline], the remaining activity at 1 µM is 100%.

With `CCCCc1c2cnccc2c([N+](=O)[O-])c2c1cnn2CC` [Compound 3e, 4-Butyl-1-ethyl-9-nitro-1H-pyrazolo[3,4-g]isoquinoline], the remaining activity at 1 µM was 72%.

The experiment is the same for the next values; noted with them: read-out: DYRK1A % residual activity at 10 μM.
Regarding `CCc1c2cnccc2c([N+](=O)[O-])c2c1cnn2CC` [Compound 3b, 1,4-Diethyl-9-nitro-1H-pyrazolo[3,4-g]isoquinoline], the remaining activity at 10 µM was determined as 9%.

For the molecule `CCCCc1c2cnccc2c([N+](=O)[O-])c2c1cnn2CC` [Compound 3e, 4-Butyl-1-ethyl-9-nitro-1H-pyrazolo[3,4-g]isoquinoline], the remaining activity at 10 µM came out at 16%.

A further experiment addresses T4, CDK9/CyclinT (Homo sapiens, UniProt P50750).
T4 construct: host or cells: Sf9 insect cells (baculovirus)
The experiment can be described thus: ADP-Glo kinase inhibition assay, CDK9/CyclinT. Type of experiment: biochemical. To be noted: read-out: CDK9 % residual activity at 1 μM. The method, then: as §1, §2
Take `CCc1c2cnccc2c([N+](=O)[O-])c2c1cnn2CC` [Compound 3b, 1,4-Diethyl-9-nitro-1H-pyrazolo[3,4-g]isoquinoline]: the remaining activity at 1 µM came to 25%.

As to `CCCCc1c2cnccc2c([N+](=O)[O-])c2c1cnn2CC` [Compound 3e, 4-Butyl-1-ethyl-9-nitro-1H-pyrazolo[3,4-g]isoquinoline], the remaining activity at 1 µM stood at 33%.

The same experiment, now with this note: read-out: CDK9 % residual activity at 10 μM.
Consider `CCc1c2cnccc2c([N+](=O)[O-])c2c1cnn2CC` [Compound 3b, 1,4-Diethyl-9-nitro-1H-pyrazolo[3,4-g]isoquinoline], for which the remaining activity at 10 µM came out at 0%.

Take `CCCCc1c2cnccc2c([N+](=O)[O-])c2c1cnn2CC` [Compound 3e, 4-Butyl-1-ethyl-9-nitro-1H-pyrazolo[3,4-g]isoquinoline]: the remaining activity at 10 µM was determined as 10%.

The target in the next experiment is T5, GSK3β (Homo sapiens, UniProt P49841).
T5 construct: host or cells: Sf9 insect cells (baculovirus)
T5 sequence (P49841 whole entry): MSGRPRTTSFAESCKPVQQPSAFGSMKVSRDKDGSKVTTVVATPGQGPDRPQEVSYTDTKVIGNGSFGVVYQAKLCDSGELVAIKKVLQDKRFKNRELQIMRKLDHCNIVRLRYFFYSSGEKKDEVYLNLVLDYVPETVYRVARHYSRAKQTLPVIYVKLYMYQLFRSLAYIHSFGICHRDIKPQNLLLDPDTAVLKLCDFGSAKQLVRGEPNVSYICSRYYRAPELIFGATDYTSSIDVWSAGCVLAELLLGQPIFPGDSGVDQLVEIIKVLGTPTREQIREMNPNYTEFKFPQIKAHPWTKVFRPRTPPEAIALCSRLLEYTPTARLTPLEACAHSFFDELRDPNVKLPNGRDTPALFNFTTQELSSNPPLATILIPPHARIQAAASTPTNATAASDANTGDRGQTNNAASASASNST
Nature of the experiment: ADP-Glo kinase inhibition assay, GSK3β. Format: biochemical. To be noted: read-out: GSK3 % residual activity at 1 μM. The method, then:
as §1, §2
In the case of `CCc1c2cnccc2c([N+](=O)[O-])c2c1cnn2CC` [Compound 3b, 1,4-Diethyl-9-nitro-1H-pyrazolo[3,4-g]isoquinoline], the remaining activity at 1 µM turned out to be 28%.

Consider `CCCCc1c2cnccc2c([N+](=O)[O-])c2c1cnn2CC` [Compound 3e, 4-Butyl-1-ethyl-9-nitro-1H-pyrazolo[3,4-g]isoquinoline], for which the remaining activity at 1 µM stood at 39%.

Still in this experiment, the particulars now being: read-out: GSK3 % residual activity at 10 μM.
As for `CCc1c2cnccc2c([N+](=O)[O-])c2c1cnn2CC` [Compound 3b, 1,4-Diethyl-9-nitro-1H-pyrazolo[3,4-g]isoquinoline], the remaining activity at 10 µM came to 3%.

On to `CCCCc1c2cnccc2c([N+](=O)[O-])c2c1cnn2CC` [Compound 3e, 4-Butyl-1-ethyl-9-nitro-1H-pyrazolo[3,4-g]isoquinoline], for which the remaining activity at 10 µM amounted to 10%.

A further experiment concerns the target T6, CK1ε (Homo sapiens, UniProt P49674).
T6 construct: host or cells: Sf9 insect cells (baculovirus)
The experiment can be described thus: ADP-Glo kinase inhibition assay, CK1ε. As to conditions: 1 μM compound, 10 μM ATP, duplicate; read-out: CK1 % residual activity at 1 μM. Format: biochemical. The method, then: as §1, §2
On to `CCc1c2cnccc2c([N+](=O)[O-])c2c1cnn2CC` [Compound 3b, 1,4-Diethyl-9-nitro-1H-pyrazolo[3,4-g]isoquinoline], for which the remaining activity at 1 µM is 82%.

As to `CCCCc1c2cnccc2c([N+](=O)[O-])c2c1cnn2CC` [Compound 3e, 4-Butyl-1-ethyl-9-nitro-1H-pyrazolo[3,4-g]isoquinoline], the remaining activity at 1 µM came out at 100%.

The same experiment, now with this note: 10 μM compound, 10 μM ATP, duplicate; read-out: CK1 % residual activity at 10 μM.
In the case of `CCc1c2cnccc2c([N+](=O)[O-])c2c1cnn2CC` [Compound 3b, 1,4-Diethyl-9-nitro-1H-pyrazolo[3,4-g]isoquinoline], the remaining activity at 10 µM is 25%.

`CCCCc1c2cnccc2c([N+](=O)[O-])c2c1cnn2CC` [Compound 3e, 4-Butyl-1-ethyl-9-nitro-1H-pyrazolo[3,4-g]isoquinoline]: the remaining activity at 10 µM was 60%.

Another experiment deals with T7, CDK5/p25 (Homo sapiens, UniProt Q00535).
T7 construct: host or cells: bacteria
T7 sequence (Q00535 whole entry): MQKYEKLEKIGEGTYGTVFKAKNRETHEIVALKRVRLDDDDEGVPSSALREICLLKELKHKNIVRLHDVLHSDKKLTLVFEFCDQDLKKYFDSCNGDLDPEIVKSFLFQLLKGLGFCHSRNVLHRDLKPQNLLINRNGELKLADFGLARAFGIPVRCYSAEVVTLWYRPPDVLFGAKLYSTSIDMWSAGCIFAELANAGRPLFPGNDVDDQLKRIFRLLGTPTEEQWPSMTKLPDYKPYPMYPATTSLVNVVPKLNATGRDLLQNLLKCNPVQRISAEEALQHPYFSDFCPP
T7 sequence (Q15078 99-307, further chain): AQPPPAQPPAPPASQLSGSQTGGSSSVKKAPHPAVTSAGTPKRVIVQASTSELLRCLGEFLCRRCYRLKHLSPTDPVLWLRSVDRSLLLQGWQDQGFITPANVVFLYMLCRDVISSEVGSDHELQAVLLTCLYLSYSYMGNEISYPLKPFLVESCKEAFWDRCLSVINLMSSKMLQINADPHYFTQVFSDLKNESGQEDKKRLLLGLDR
The experiment can be described thus: ADP-Glo kinase inhibition assay, CDK5/p25. Format: biochemical. To be noted: read-out: CDK5 % residual activity at 1 μM. The method, then:
as §1, §2
For `CCc1c2cnccc2c([N+](=O)[O-])c2c1cnn2CC` [Compound 3b, 1,4-Diethyl-9-nitro-1H-pyrazolo[3,4-g]isoquinoline], the remaining activity at 1 µM came to 33%.

Regarding `CCCCc1c2cnccc2c([N+](=O)[O-])c2c1cnn2CC` [Compound 3e, 4-Butyl-1-ethyl-9-nitro-1H-pyrazolo[3,4-g]isoquinoline], the remaining activity at 1 µM was found to be 82%.

Staying with this experiment, now noted: read-out: CDK5 % residual activity at 10 μM.
For the molecule `CCc1c2cnccc2c([N+](=O)[O-])c2c1cnn2CC` [Compound 3b, 1,4-Diethyl-9-nitro-1H-pyrazolo[3,4-g]isoquinoline], the remaining activity at 10 µM worked out at 16%.

Consider `CCCCc1c2cnccc2c([N+](=O)[O-])c2c1cnn2CC` [Compound 3e, 4-Butyl-1-ethyl-9-nitro-1H-pyrazolo[3,4-g]isoquinoline], for which the remaining activity at 10 µM amounted to 57%.

Another experiment addresses T8, Pim-1 (Homo sapiens, UniProt P11309).
T8 construct: host or cells: bacteria
The experiment can be described thus: ADP-Glo kinase inhibition assay, Pim-1. Format: biochemical. As to conditions: 1 μM compound, 10 μM ATP, duplicate; read-out: PIM1 % residual activity at 1 μM. The method, then: as §1, §2
For the molecule `CCc1c2cnccc2c([N+](=O)[O-])c2c1cnn2CC` [Compound 3b, 1,4-Diethyl-9-nitro-1H-pyrazolo[3,4-g]isoquinoline], the remaining activity at 1 µM turned out to be 100%.

In the case of `CCCCc1c2cnccc2c([N+](=O)[O-])c2c1cnn2CC` [Compound 3e, 4-Butyl-1-ethyl-9-nitro-1H-pyrazolo[3,4-g]isoquinoline], the remaining activity at 1 µM was found to be 78%.

The experiment is the same for the next values; noted with them: 10 μM compound, 10 μM ATP, duplicate; read-out: PIM1 % residual activity at 10 μM.
Turning to `CCc1c2cnccc2c([N+](=O)[O-])c2c1cnn2CC` [Compound 3b, 1,4-Diethyl-9-nitro-1H-pyrazolo[3,4-g]isoquinoline], the remaining activity at 10 µM came out at 89%.

Consider `CCCCc1c2cnccc2c([N+](=O)[O-])c2c1cnn2CC` [Compound 3e, 4-Butyl-1-ethyl-9-nitro-1H-pyrazolo[3,4-g]isoquinoline], for which the remaining activity at 10 µM was 35%.
